Test results: patent US6979665B2, “Agent for stimulation of the natural defences of plants and methods for using it” (Laboratoires Goemar S.A., priority 2002, dated 2005)
“Also recorded” adds a separate entry of the source.

Experiments:
scopoletin = experiment: Accumulation of total scopoletin in infiltrated tissues; assay type: in vivo, Nicotiana tabacum; details: variety Bel3, tissues sampled 3 days after infiltration (FIG. 6)
Text: (§1) The stimulation, after infiltration with the here above defined compositions H11-C and H11-S of the accumulation of salicylic acid and of scopoletin in the varieties NN and Bel3 was then examined.
(§2) The results of these experiences appear on FIGS. 5 and 6, which respectively show the accumulation—expressed in μg respectively of salicylic acid and of scopoletin per gram of infiltrated tissues—of the total salicylic acid (free and conjugated forms) and of the total scopoletin (free and conjugated forms) determined on tissues on the varieties NN and Bel3 infiltrated as indicated here above on the one hand with water (C) as a control and on the other hand with compositions based on the fractions H11-C1 and H11-S containing respectively 200 mg/l of these fractions, the infiltrated tissues being sampled 3 days after the infiltration treatment.

salicylic acid = experiment: Accumulation of total salicylic acid in infiltrated tissues; assay type: in vivo, Nicotiana tabacum; details: variety Bel3, tissues sampled 3 days after infiltration (FIG. 5)
Text: as §1, §2

[1] = test system: tobacco plants of the varieties NN and Bel3; experiment: Symptoms of leaf tissues after infiltration into the mesophyl (depigmentation/chlorosis, fluorescence under UV light); assay type: in vivo, Nicotiana tabacum
Procedure: The treatment has been applied on the one hand to the whole plants and on the other hand to cellular suspensions, the varieties of the plants used being: • the variety Nicotiana tabacum cv. Samsun NN designated by NN • the variety Nicotiana tabacum cv. Bel3 designated by Bel3
First, the plants of the varieties NN and Bel 3 as such were treated using aqueous compositions comprising respectively the fractions H11-C1 and H11-S at the concentration of 200 mg/l, which is, as indicated hereabove, the optimum dosis for the elicitor activity of unsulfated glucans.
The treatment consists in the infiltration of the above said aqueous compositions based on the fractions H11-C1 and H11-S into the mesophyl of the leaves of the treated plants.
The infiltration is carried out by piercing tobacco leaves using a needle and by applying then perpendicularly with respect to the plane of the leave a syringe containing the solution to be injected. Immediately after the injection, the infiltration zone, visible by illumination of the leave from its lower face, is delimitated using a felt type pen. The infiltrated zone is designated by ZI.
(§3) In another line of tests or experiences, the varieties NN and Bel3 have been treated with inducing compositions presenting respectively the concentrations of 0.5 and then of 5, of 20, of 50, of 200 and of 1,000 mg/l in H11-S and H11-C2 and the expression of the PR1 and PR2 acidic proteins in the case of the said varieties NN and Bel3 have been analysed.

[2] = test system: OMT activity (orthodiphenol-O-methyltransferases); experiment: OMT activity in infiltrated tobacco leaves; assay type: in vivo, Nicotiana tabacum; details: for stimulation of the OMT activity: 200 mg/l; for OMT activity relative to that obtained with H11-C2: 500 mg/l
Text: Measurement was also made of the OMT activity induced by the compositions based on the fractions H11-C1 and H11-S.
For the measurement of that activity, procedure was as disclosed by Costet L., Dorey S., Fritig B. and Kauffmann S in the publication here above identified and published under the title: • “A pharmacological approach to test the diffusible signal activity of reactive oxygen intermediates in […] tobacco leaves”, in Plant Cell and Physiology (2002) 43; 91-98.
The latter show the stimulation of the OMT activity, expressed in pkat/g FP (i.e. in picokatal per gram of fresh product FP, in other words of fresh vegetable material), by infiltration with water as control (reference C), then with the compositions based on H11-C1 and H11-S, the plants treated being again the varieties NN and Bel3.
The OMT activity has also been measured after infiltration of the varieties NN and Bel3 with the same compositions.
In another line of tests, the varieties NN and Bel3 have been treated with the same inducing compositions presenting respectively the concentrations of 0.5 and then of 5, of 50, of 200 and of 500 mg/l in H11-S and H11-C and the OMT activity in the case of the varieties NN and Bel3 has been analysed.
FIGS. 8 and 9 show the values of stimulation of the OMT activity (expressed in pkat/g FP) respectively in the case of the varieties NN and Bel3.

[3] = test system: signalisation pathways of salicic acid and of ethylene; experiment: Complementary experiences on signalisation pathways; assay type: in vivo
[4] = test system: PR proteins (families PR1, PR2, PR3 and PR5, acidic and alkaline isoforms); experiment: Expression of PR proteins in infiltrated tobacco leaves by immunodetection; assay type: in vivo, Nicotiana tabacum
Procedure: Concerning the PR proteins, the expression of the acidic and of the alkaline isoforms of 4 families of these proteins, i.e. the families PR1, PR2, PR3 and PR5 has been analysed in the case of tobacco plants of the varieties NN and Bel3 infiltrated with compositions based on the fractions H11-C1 and H11-S at a concentration of 200 mg/l.
The analysis of these proteins has been carried out by immunodetection as disclosed in the publication in the name of Costet L., Dorey S., Fritig B. and Kauffmann S., published under the title: • “A pharmacological approach to test the diffusible signal activity of reactive oxygen intermediates in elicitor-treated tobacco leaves”, in Plant Cell and Physiology (2002) 43; 91-98.
The intensity of the induction appears on the tracks 1 to 8 by way of spots more or less pronounced.
The samples of infiltrated tissues on which the treatments illustrated by track 9 of FIG. 3 were made, were carried out 3 days after the infiltration treatment.
as §3
That expression of the acidic PR1 and PR2 proteins is materialised by the intensity of the spots, which appear on the tracks 10, 11, 12, 13, and which are the result of the determination by immunodetection.

[5] = test system: cellular suspension of Nicotiana tabacum cv. Bright Yellow; experiment: Alkalinisation test of the extracellular medium on cellular suspension; assay type: cell-based; details: after 10 minutes; 160 μl of 10 g/l composition added to 8 ml suspension, final concentration about 200 mg/l
Procedure: The cellular suspensions here above mentioned are suspensions obtained starting from the vegetal tissue of Nicotiana tabacum cv. Bright Yellow.
One of these experiences is consisting of the so-called alkalinisation test of the extracellular medium and the other of the so-called test of the refractory state.
In the case of the first test, the latter is carried out on a cellular suspension obtained starting from vegetable tissues of the variety Bright Yellow. To three 8 ml samples of that cellular suspension were added respectively 160 μl of three aqueous compositions respectively containing 10 g/l of the fractions H11-C1, I25 (oligofucanes) and H11-S, the final concentration in each of the oligosaccharides being equal to […].

[6] = test system: agronomically useful plants; experiment: Stimulation of natural defence reactions of plants by liquid compositions (general statements); assay type: in vivo; details: in practice

With laminarin sulfate [H11-S] the “ratio of the concentrations (H11-C1 at 200 mg/l versus H11-S) giving the same accumulation of scopoletin” value (scopoletin) was at most 30, the “ratio of the concentrations (H11-C1 at 200 mg/l versus H11-S) giving the same accumulation of salicylic acid” value (salicylic acid) was at most 30 and the “fluorescence under U.V. light at the level of infiltrated tissues” value ([1]; 200 mg/l, infiltrated tissues) was “a blue fluorescence under U.V. light is observed”. For the same substance, the “symptoms of chlorosis as a function of concentration” value ([1]; 0.5, 5, 20, 50, 200 and 1,000 mg/l, varieties NN and Bel3) was “the more the symptoms of chlorosis are severe”, the “symptoms of the infiltrated tissues” value ([1]; aqueous composition 200 mg/l infiltrated into leaf mesophyl, varieties NN and Bel3) was “present a depigmentation” and the “dose at which first symptoms of fluorescence under UV light are obtained” value ([1]; concentration series 0.5 to 1,000 mg/l) was 50 mg/L. For the same substance, the “stimulation of the OMT activity” value ([2]; varieties NN and Bel3, compared among C, H11-C1, H11-C2, H11-C3, H11-S, H16 (FIG. 4)) was “clearly better”, the “stimulation of the OMT activity” value ([2]; variety Bel3, H11-S versus H11-C1 (FIG. 2)) was “clearly more intense” and the “stimulation of the OMT activity” value ([2]; variety NN, H11-S versus H11-C1 (FIG. 2)) was “similar”. The “increase of OMT activity as a function of the concentration” value ([2]; 0.5, 5, 50, 200 and 500 mg/l, varieties NN and Bel3 (FIGS. 8 and 9)) was “much faster”, the “OMT activity relative to that obtained with H11-C2” value ([2]; variety Bel3) was “about ten” and the “OMT activity relative to that obtained with H11-C2” value ([2]; variety NN) was “about four”. For the same substance, the “factor by which the concentration can be lower than that of H11-C1, H11-C2 and H11-C3 for a comparable OMT result” value ([2]; conclusion from FIG. 4) was “eight”, the “dosis at which the maximum response of OMT activity is reached” value ([2]; varieties NN and Bel3) was 500 mg/L and the “factor by which the concentration can be lower for OMT stimulation equal to H11-C1 at 200 mg/l” value ([2]; variety Bel3, forecast from FIG. 2) was 8 to 9 times. The “induction of signalisation pathways” value [3] was “induce the signalisation pathways of salicic acid and of ethylene”, the “expression of acidic and alkaline isoforms of PR1, PR2, PR3 and PR5 proteins” value ([4]; 200 mg/l, varieties NN and Bel3, H11-S compared with H11-C1 (FIG. 1)) was “more important; also recorded: stronger” and the “expression of the acidic PR1 protein” value ([4]; 200 mg/l, varieties NN and Bel3, tissues sampled 3 days after infiltration (FIG. 3)) was “highest expression”. The “concentration from which acidic PR1 and PR2 proteins are detected” value ([4]; immunodetection, concentration series 0.5 to 1,000 mg/l, varieties NN and Bel3 (FIG. 7)) was 5 to 20 mg/L, the “dosis at which the maximum response of expression of the PR proteins is reached” value ([4]; varieties NN and Bel3) was 500 mg/L and the “alkalinisation of the medium” value [5] was 0.3 pH units. For the same substance, the “concentration above which no better result is provided” value [6] was “higher than 500 mg/l”.
